Laboratory results published in patent US10016515B2, “DMA, a bis-benzimidazole, confers radioprotection to the intestine via Akt/NFκB dual pathway activation” (Jawaharlal Nehru University, priority 2016, dated 2018).
Where “and” joins values, the source holds several entries; their conditions need not be identical. Equal values may be shown once.

Columns and labels:
A549 cells = experiment: Clonogenic survival, DMF; type: cell-based, human; conditions: A549, 50 μM DMA 2 h before radiation
Protocol: (§1) Exponentially growing U87, HEK293, MRC5 and A549 cells were treated with 50 μM DMA for 2 h and irradiated with 0, 1, 2, 5, 8 and 10 Gy of radiation dose as indicated at RT and trypsinized immediately at 37° C. Cells were seeded into 60 mm dishes in triplicate at various cell densities aiming approximately 100 colonies/dish. Percentage radioprotection was calculated by following formula % of Protection in radiation treated cells=(SFDMA+radiaion)−(SFRadiaion)/SFControl×100 Where SF is survival fraction in respective conditions. Dose modification factor (DMF) was calculated as ratio of 50% survival in DMA+radiation to 50% survival in radiation only.

HEK293 cells [1] = experiment: Clonogenic survival, DMF; type: cell-based, human; conditions: HEK293, 50 μM DMA 2 h before radiation
Protocol: as §1

MRC5 cells = experiment: Clonogenic survival, DMF; type: cell-based, human; conditions: MRC5, 50 μM DMA 2 h before radiation
Protocol: as §1

U87 cells = experiment: Clonogenic survival, DMF; type: cell-based, human; conditions: U87, 50 μM DMA 2 h before radiation
Protocol: as §1

[2] = system: melanoma bearing Balb/c mice; experiment: Melanoma tumor bearing mice, tumor volume and survival after TBI; type: in vivo, mouse
Protocol: EAT and B16F10 melanoma cell line were harvested and 10×10^6 and 0.8×10^6 cells respectively were injected subcutaneously in the Balb/c mice (n=24) on the right thigh. When tumors reached 0.5 cm^3 in volume, animals were randomized and divided into 4 different groups. The first test group was treated with 50 mg/kg, i.v. DMA, second test group subjected to 8 Gy TBI. Third group received 50 mg/kg, i.v. DMA and 8 Gy TBI both. The control group was similarly administered normal saline (0.1 ml, i.v.). On every alternate days, tumor-bearing thigh of each animal was shaved, and the longest (1) and shortest diameter (b) of the tumors along with height (h) were measured with the help of a vernier calliper. Tumor weight of each animal was calculated using the formula l*b*h/2.

HEK293 cells [3] = experiment: Actively proliferating cells by BrdU uptake; type: cell-based, human; conditions: 48 h
Protocol: FIG. 5. […] Tissue sections performed 3 days postirradiation (8Gy) with and without 50 mg/kg bw, i.v. DMA pretreatment with the control and DMA treated tissues (A) Images showing spleen, intestine and liver analysis at magnification 40× objective lens. (B) Small intestine, spleen and lung sections from melanoma tumor bearing mice at 40× & 60× objective lens (C) Immunohistochemical analysis of BrdU uptake in spleen and IL6 protein expression in intestine tissues at 100× objective lens magnification. (D) Graphical representation of actively proliferating HEK293 at 48 h and Balb/c intestinal cells by BrdU uptake under each condition (n=3/group from 2 independent experiments).

[4] = system: Balb/c mice intestine tissue; experiment: Gene expression at mRNA level by RT-PCR; type: in vivo, mouse
Protocol: The cDNA generated from total RNA was amplified using 1 μl of the reaction products in 10 μl with respective primers for 45 cycles following standard RT-PCR cycle by SYBR green dye. Transcript levels were calculated according to the 2^−ΔΔCt method, normalized to the expression of GAPDH, and expressed as fold change compared with control.

[5] = system: Akt in MRC5 and A549 cells; experiment: Akt kinase assay in cell lines; type: cell-based, human; conditions: DMA+Radiation vs control and radiation
Protocol: Akt kinase activity was determined using Akt Kinase Assay Kit (Nonradioactive) (Cell Signaling Technology, Cat. #9840) following the manufacturer's instructions.

HEK293 cells [6] = experiment: Cell-cycle analysis; type: cell-based, human
Protocol: The cell cycle analysis of Akt depleted HEK293 cells were done at 0, 1, 3, 6, 12, 18 and 24 h, washed twice with ice-cold PBS, and fixed in 70% ethanol. Cell pellets were stored at 4° C. for 24 h, and stained with 0.5 mL of propidium iodide (0.1% in 0.6% Triton X-100 in PBS) and 0.5 mL of RNase (2 mg/mL) for 30 min in dark. Samples were then analysed on a FACS Calibur flow-cytometer (Becton Dickinson).

HEK293 cells [7] = experiment: Annexin-V staining, control siRNA and Akt siRNA transfected cells; type: cell-based, human; conditions: for Apoptotic events: Akt knocked down HEK293, DMA+Radiation; for Total early and late apoptotic cells: control siRNA HEK293, DMA+Radiation
Protocol: HEK 293 cells were transfected with Akt siRNA and control-siRNA (Santa Cruz Biotechnology Inc.) according to the manufacturer's instructions. Semi-quantitative RT-PCR was performed with primers specific for Akt and ACTB in control siRNA and Akt siRNA treated HEK cells for analysing knockdown of Akt […] gene expression.
HEK293 cells (2×10^5 cells/plate) were transfected with control siRNA and siRNA-Akt, and DMA, Radiation and DMA+Radiation treatments were given as described earlier and samples were collected at 3, 6, 12, 18 and 24 h (data not shown for 12 and 18 h). Samples were prepared according to the manufacturer's instructions (BD Pharmingen™ Annexin V: FITC Apoptosis Detection Kit I, Catalog Number 556547, USA) and the samples were subjected to flow cytometry analysis (Becton Dickinson).

Balb/c mice = type: in vivo; conditions: 400 mg/kg oral before 8Gy TBI
[8] = DMA pre-treated to radiation group

COc1ccc(-c2nc3cc(-c4nc5cc(N6CCN(C)CC6)ccc5[nH]4)ccc3[nH]2)cc1OC [DMA, 5-(4-methylpiperazin-1-yl)-2-[2′-(3,4-dimethoxyphenyl)-5′-benzimidazolyl]benzimidazole]
DMF at 50% survival (A549 cells): 1.38
DMF at 50% survival (HEK293 cells [1]): 1.44
DMF at 50% survival (MRC5 cells): 1.1
DMF at 50% survival (U87 cells): 1.067 and 1.07
Survival of melanoma bearing Balb/c mice ([2]; 50 mg/kg i.v. 2 h before 8Gy TBI): 50%
Radioprotection of tumor tissues ([2]; 50 mg/kg, 2 h before irradiation, melanoma model): less radioprotection
Cells at active S phase (HEK293 cells [3]; HEK293, DMA treated): 30%
S phase cells (HEK293 cells [3]; HEK293, DMA+Radiation (5Gy)): came back to normal
Akt mRNA expression ([4]; DMA 50 mg/kg i.v. + 8Gy TBI vs control): higher expression
Bax, Bcl-2 and p21 mRNA expression level ([4]; DMA by itself): did not increase
Gadd45α mRNA expression ([4]; DMA by itself): significantly increased
Bax gene expression [4, 8]: no significant downregulation
Bcl-2 mRNA level [4, 8]: insignificant increase
p21 mRNA expression ([4]; DMA pretreatment 50 mg/kg i.v. to radiation vs radiation): significantly downregulated
Gadd45α mRNA expression ([4]; DMA pretreatment to radiation): augmented
Akt kinase activity [5]: higher Akt kinase activity
G2 check point (HEK293 cells [6]; HEK293, DMA 50 μM alone): no significant G2 check point
G2-M progression (HEK293 cells [6]; HEK293, DMA+Radiation (5Gy), 18 h): significant G2-M delay
Apoptotic events (HEK293 cells [7]; 3 h): 23%
Apoptotic events (HEK293 cells [7]; 6 h): 21%
Apoptotic events (HEK293 cells [7]; 24 h): 22%
Total early and late apoptotic cells (HEK293 cells [7]; 3 h): 12%
Total early and late apoptotic cells (HEK293 cells [7]; 6 h): 9%
Total early and late apoptotic cells (HEK293 cells [7]; 24 h): 7%
30-days survival rate (Balb/c mice): 90%
